Reference: US7666890B2, “Synthesis and herbicidal activity of 1- (2-substituted benzo[d]thiazol-5-yl)-1H-1,2,4-triazol-5(4H)-one derivatives” (Huazhong Normal University, priority 2007, dated 2010)

Experiments:
Experiment in all cases: Test of herbicidal activities (greenhouse pot method)
Format in all cases: in vivo
[1] = test system: Amaranthus retroflexus; details: for Herbicidal activity Amaranthus retroflexus (inhibition level): single dose 300 g ai./h, treated before/after germination, 15 days later, greenhouse pot
Method in brief: (§1)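 Weeds were sown in soil-filled pots at 15–30 °C and treated once by spray tower at 300 g ai./h, either before emergence or post-emergence at the 2-leaf stage, in three replicates with an untreated control. Symptoms were scored 15 days later into five classes from A (≥90%) to E (<50%).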

[2] = test system: Brassica juncea; details: for Herbicidal activity Brassica juncea (inhibition level): single dose 300 g ai./h, treated before/after germination, 15 days later, greenhouse pot
Method in brief: as §1

[3] = test system: Chenopodium album; details: for Herbicidal activity Chenopodium album (inhibition level): single dose 300 g ai./h, treated before/after germination, 15 days later, greenhouse pot
Method in brief: as §1

[4] = test system: Digiatria sanguinalis; details: for Herbicidal activity Digiatria sanguinalis (inhibition level): single dose 300 g ai./h, treated before/after germination, 15 days later, greenhouse pot
Method in brief: as §1

[5] = test system: Echinochloa crusgalli; details: for Herbicidal activity Echinochloa crusgalli (inhibition level): single dose 300 g ai./h, treated before/after germination, 15 days later, greenhouse pot
Method in brief: as §1

[6] = test system: Setaria viridis; details: for Herbicidal activity Setaria viridis (inhibition level): single dose 300 g ai./h, treated before/after germination, 15 days later, greenhouse pot
Method in brief: as §1

Row | SMILES | Herbicidal activity Amaranthus retroflexus (inhibition level) [1] | Herbicidal activity Brassica juncea (inhibition level) [2] | Herbicidal activity Chenopodium album (inhibition level) [3] | Herbicidal activity Digiatria sanguinalis (inhibition level) [4] | Herbicidal activity Echinochloa crusgalli (inhibition level) [5] | Herbicidal activity Setaria viridis (inhibition level) [6] | inhibition at 300 g/ha ([1]; Amaranthus retroflexus, 360 h, read-out: Herbicidal activity Amaranthus retroflexus (inhibition level)) [%] | inhibition at 300 g/ha ([2]; Brassica juncea, 360 h, read-out: Herbicidal activity Brassica juncea (inhibition level)) [%] | inhibition at 300 g/ha ([3]; Chenopodium album, 360 h, read-out: Herbicidal activity Chenopodium album (inhibition level)) [%] | inhibition at 300 g/ha ([4]; 360 h, read-out: Herbicidal activity Digiatria sanguinalis (inhibition level)) [%] | inhibition at 300 g/ha ([5]; Echinochloa crus-galli, 360 h, read-out: Herbicidal activity Echinochloa crusgalli (inhibition level)) [%] | inhibition at 300 g/ha ([6]; Setaria viridis, 360 h, read-out: Herbicidal activity Setaria viridis (inhibition level)) [%]
1 | Cc1nn(-c2cc3nc(SCc4ccc(F)cc4)sc3cc2Br)c(=O)n1C(F)F [Compound 27] | D (50 ≦ D < 60%) | A (90 ≦ A ≦ 100%) | C (60 ≦ C < 80%) | D (50 ≦ D < 60%) | B (80 ≦ B < 90%) | B (80 ≦ B < 90%) | – | – | – | – | – | –
2 | Cc1nn(-c2cc3nc(SCc4ccc(F)cc4F)sc3cc2Cl)c(=O)n1C(F)F [Compound 8] | C (60 ≦ C < 80%) | C (60 ≦ C < 80%) | C (60 ≦ C < 80%) | B (80 ≦ B < 90%) | E (E < 50%) | C (60 ≦ C < 80%) | – | – | – | – | – | –
3 | CCOC(=O)CSc1nc2cc(-n3nc(C)n(C(F)F)c3=O)c(F)cc2s1 [Compound 93, Ethyl 1-{5-[4-difluoromethyl-3-methyl-5-oxo-4,5-dihydro-1,2,4-triazol-1-yl]-6-fluorobenzo[d]thiazol-2-ylthio}acetate] | – | – | – | – | – | – | 90 to 100 | 90 to 100 | 90 to 100 | 90 to 100 | 90 to 100 | 80 to 90
4 | CCCSc1nc2cc(-n3nc(C(F)(F)F)n(C(F)F)c3=O)c(Br)cc2s1 [Compound 129] | A (90 ≦ A ≦ 100%) | C (60 ≦ C < 80%) | A (90 ≦ A ≦ 100%) | A (90 ≦ A ≦ 100%) | A (90 ≦ A ≦ 100%) | C (60 ≦ C < 80%) | – | – | – | – | – | –
5 | C=CCSc1nc2cc(-n3nc(C)n(C(F)F)c3=O)c(Cl)cc2s1 [Compound 99] | B (80 ≦ B < 90%) | B (80 ≦ B < 90%) | C (60 ≦ C < 80%) | B (80 ≦ B < 90%) | A (90 ≦ A ≦ 100%) | B (80 ≦ B < 90%) | – | – | – | – | – | –
6 | CCCSc1nc2cc(-n3nc(C)n(C)c3=O)c(F)cc2s1 [Compound 33] | A (90 ≦ A ≦ 100%) | A (90 ≦ A ≦ 100%) | B (80 ≦ B < 90%) | A (90 ≦ A ≦ 100%) | B (80 ≦ B < 90%) | B (80 ≦ B < 90%) | – | – | – | – | – | –
7 | Cc1nn(-c2cc3nc(S(=O)(=O)Cc4ccccc4F)sc3cc2F)c(=O)n1C(F)F [Compound 52] | C (60 ≦ C < 80%) | B (80 ≦ B < 90%) | B (80 ≦ B < 90%) | A (90 ≦ A ≦ 100%) | E (E < 50%) | B (80 ≦ B < 90%) | – | – | – | – | – | –
8 | CCOC(=O)CS(=O)(=O)c1nc2cc(-n3nc(C)n(C(F)F)c3=O)c(F)cc2s1 [Compound 65] | A (90 ≦ A ≦ 100%) | A (90 ≦ A ≦ 100%) | A (90 ≦ A ≦ 100%) | B (80 ≦ B < 90%) | C (60 ≦ C < 80%) | B (80 ≦ B < 90%) | – | – | – | – | – | –
9 | Cc1nn(-c2cc3nc(S(=O)(=O)Cc4ccc(F)cc4F)sc3cc2F)c(=O)n1C(F)F [Compound 49] | A (90 ≦ A ≦ 100%) | A (90 ≦ A ≦ 100%) | B (80 ≦ B < 90%) | C (60 ≦ C < 80%) | A (90 ≦ A ≦ 100%) | D (50 ≦ D < 60%) | – | – | – | – | – | –
10 | COc1cccc(CSc2nc3cc(-n4nc(C)n(C(F)F)c4=O)c(F)cc3s2)c1 [Compound 17] | A (90 ≦ A ≦ 100%) | A (90 ≦ A ≦ 100%) | B (80 ≦ B < 90%) | E (E < 50%) | C (60 ≦ C < 80%) | B (80 ≦ B < 90%) | – | – | – | – | – | –
11 | CCSc1nc2cc(-n3nc(C)n(C(F)F)c3=O)c(F)cc2s1 [Compound 84] | B (80 ≦ B < 90%) | C (60 ≦ C < 80%) | A (90 ≦ A ≦ 100%) | A (90 ≦ A ≦ 100%) | A (90 ≦ A ≦ 100%) | B (80 ≦ B < 90%) | – | – | – | – | – | –
12 | Cc1nn(-c2cc3nc(S(=O)(=O)Cc4ccccc4)sc3cc2Cl)c(=O)n1C(F)F [Compound 37] | C (60 ≦ C < 80%) | D (50 ≦ D < 60%) | A (90 ≦ A ≦ 100%) | C (60 ≦ C < 80%) | D (50 ≦ D < 60%) | E (E < 50%) | – | – | – | – | – | –
13 | Cc1nn(-c2cc3nc(SCn4cnc5ccccc5c4=O)sc3cc2F)c(=O)n1C(F)F [Compound 74] | B (80 ≦ B < 90%) | B (80 ≦ B < 90%) | C (60 ≦ C < 80%) | B (80 ≦ B < 90%) | A (90 ≦ A ≦ 100%) | A (90 ≦ A ≦ 100%) | – | – | – | – | – | –
14 | Cc1nn(-c2cc3nc(SCc4cccc(Cl)c4)sc3cc2Cl)c(=O)n1C(F)F [Compound 4] | B (80 ≦ B < 90%) | E (E < 50%) | C (60 ≦ C < 80%) | E (E < 50%) | C (60 ≦ C < 80%) | C (60 ≦ C < 80%) | – | – | – | – | – | –
15 | CC[S+]([O-])c1nc2cc(-n3nc(C)n(C(F)F)c3=O)c(F)cc2s1 (stereo not drawn) [Compound 113] | B (80 ≦ B < 90%) | A (90 ≦ A ≦ 100%) | D (50 ≦ D < 60%) | C (60 ≦ C < 80%) | B (80 ≦ B < 90%) | C (60 ≦ C < 80%) | – | – | – | – | – | –
16 | CSc1nc2cc(-n3nc(C)n(C)c3=O)c(F)cc2s1 [Compound 31] | A (90 ≦ A ≦ 100%) | B (80 ≦ B < 90%) | C (60 ≦ C < 80%) | A (90 ≦ A ≦ 100%) | B (80 ≦ B < 90%) | B (80 ≦ B < 90%) | – | – | – | – | – | –
17 | CCC[S+]([O-])c1nc2cc(-n3nc(C)n(C(F)F)c3=O)c(F)cc2s1 (stereo not drawn) [Compound 121] | D (50 ≦ D < 60%) | C (60 ≦ C < 80%) | A (90 ≦ A ≦ 100%) | C (60 ≦ C < 80%) | E (E < 50%) | D (50 ≦ D < 60%) | – | – | – | – | – | –
